Where “and” joins values, the source holds several entries; their conditions need not be identical. Equal values may be shown once.
Experiments:
[1] = target: p38α MAPK
[2] = system: ABL1(T315I)-phosphorylated
[3] = system: ADCK3
[4] = system: AURKB
[5] = system: AXL
[6] = system: BMPR2
[7] = system: BRAF
[8] = system: BTK
[9] = system: CDK2
[10] = system: CDK7
[11] = system: ERBB2
[12] = system: GSK3B
[13] = system: IKKα
[14] = system: JAK3(JH1domain-catalytic)
[15] = system: MAPKAPK2
[16] = system: MKNK2
[17] = system: PDGFRA
[18] = system: PDGFRB
[19] = system: PDPK1
[20] = system: PIK3CG
[21] = system: PKACα
[22] = system: PLK1
[23] = system: PRKCE
[24] = system: RIOK2
[25] = system: RSK2 (Kin.Dom.1-N-terminal)
[26] = system: SNARK
[27] = system: TGFBR1
[28] = system: TYK2(JH1domain-catalytic)
[29] = system: YANK3
[30] = system: ZAP70
[31] = system: PBMCs; assay: Cytokine release from PHA-stimulated PBMCs; type: cell-based, human
Method: Human PBMCs from healthy donors were isolated from heparinized blood by density gradient centrifugation with Ficoll-Paque. The isolated cells were washed twice with PBS, resuspended in RPMI 1640 medium (Sigma-Aldrich, St. Louis, MO, USA) supplemented with 10% heat-inactivated fetal bovine serum (Gibco), 2 mM L-glutamine (Sigma-Aldrich), 100 U/mL penicillin (Sigma-Aldrich), and 100 μg/mL streptomycin (Sigma-Aldrich), and used in the assays.
Peripheral blood mononuclear cells were seeded (500,000 cells/well) in 24-well plates in 500 μL of growth medium and treated with compounds 94, 95, and neflamapimod (1, 2.5, and 5 μM) in the presence or absence of PHA (1 μg/mL) or the corresponding vehicle (0.1% DMSO). Cell-free supernatants were collected after 18 h of incubation (37 °C, 5% CO2) and stored at −80 °C until tested. Cytokine production was determined with BD Cytometric Bead Array human inflammatory cytokines kit (BD Bioscience) on an Attune NxT flow cytometer (Thermo Fisher Scientific, Waltham, MA, USA). Standard curves were generated using recombinant cytokines contained in the kit. The data were analyzed using the FlowJo (Tree Star, Inc., Ashland, OR, USA) and Prism (GraphPad Prism 6.0, GraphPad Software) software.

[32] = system: scopolamine-induced cognitive deficits in mice; assay: Novel object recognition task, scopolamine-induced amnesia; type: in vivo
From the text: In the scopolamine model, the PA and NOR tasks were used for dose selection for further testing.
The mice had unlimited access to food and water prior to the experiment. Specified conditions for the maintenance of mice were ensured throughout the experiment, including tree bedding (Transwior, Poland) and cage enrichment (tunnels, nesting material, wooden igloos, etc.). For behavioral tests, the mice were selected randomly; each group consisted of 7–10 mice. […] The procedures for maintenance and treatment of laboratory animals were approved by the first Local Ethics Committee in Krakow (Approval No. 645/2022, 760/2023, and 829/2024 and the treatment of animals was in full accordance with ethical standards laid down in respective Polish and EU regulations (Directive 2010/63/EU).
Scopolamine hydrobromide (Sigma-Aldrich, Poland) at the dose of 1 mg/kg was used to induce learning and memory deficits. For the in vivo tests, scopolamine was prepared in distilled water (Polfa Kutno, Poland) and was administered subcutaneously (s.c.) 30 min before behavioral tests during the acquisition (training) trial of PA and NOR tasks. […] They were administered intraperitoneally (i.p.) 60 min before the acquisition trial of the PA, NOR, and MWM tasks.
The experiment was conducted in opaque black boxes with dimensions of 50 × 50 × 50 cm. The 3 day procedure consists of habituation to the test arena (without any objects) for 10 min on the first day (T0), a training trial (T1), and a testing trial (T2) separated by a 24 h intertrial interval. During T1 (familiarization trial), two identical objects (A and B) were presented in the opposite corners of the arena, approximately 5 cm from its walls. During T2 (recognition trial), one of the objects (B) was replaced by a novel object (C), so that the animals were presented with A (familiar) and C (novel) objects. Both T1 and T2 trials lasted for 10 min, and after each trial, the animals returned to their home cages. White plastic round containers (height 5 cm, diameter 5 cm) attached to the ground with double-sided tape were used as the A, B objects, and green cuboids of similar height were used as object C. The objects were stable enough so that the animals could not displace them. The sequence of presentations and the location of the objects were randomly assigned to each mouse. The animals explored the objects by looking, licking, sniffing, or touching them while sniffing, but not when leaning against, standing, or sitting on the objects. Any mouse exploring the two objects for less than 5 s within the 10 min duration of T1 or T2 was eliminated from the study. An experimenter, blind to the drug treatment, measured the exploration time of the objects.

[33] = system: LPS-treated mice; assay: Morris water maze task, LPS model of neuroinflammation; type: in vivo; details: 10 mg/kg i.p.; from day 2 (94) or day 3 (95) to day 6; vs LPS alone
Method: The compounds were administered for 10 consecutive days, and on the last 6 days of their administration, LPS was also administered intraperitoneally 5 h before the test compounds. On these 6 days, the acquisition phase of the MWM task was performed. One day later, the retention, drug-off trial of the MWM task was carried out.
In the LPS model adult male C57BL/6J mice (Animal Breeding Farm of the Faculty of Pharmacy, Jagiellonian University Medical College) of similar weight and age were used. […] The mice had unlimited access to food and water prior to the experiment. Specified conditions for the maintenance of mice were ensured throughout the experiment, including tree bedding (Transwior, Poland) and cage enrichment (tunnels, nesting material, wooden igloos, etc.). For behavioral tests, the mice were selected randomly; each group consisted of 7–10 mice. […] After in vivo tests, the animals were immediately euthanized, and their tissues were collected and stored for further ex vivo testing.
LPS (Lipopolysaccharide from Escherichia coli O111:B4, Sigma-Aldrich, Poland) was used to induce neuroinflammation in mice. […] They were administered intraperitoneally (i.p.) 60 min before the acquisition trial of the PA, NOR, and MWM tasks. […] In the rotarod, locomotor activity, and MWM tests, only one dose effective in the scopolamine model of amnesia was evaluated.
The Morris water maze is a circular, plastic, and gray-painted pool (120 cm in diameter and 60 cm in height), filled with water (up to about 48 cm below the edge to prevent an animal from jumping out), maintained at 23 ± 1 °C. The pool was divided into four equal quadrants (compass locations: NE, NW, SE, SW) by a computerized video tracking system (SMART, ver. 3.0; Panlab, Spain). An escape platform (11 cm in diameter and 47 cm in height) at a fixed location (the center of the NW quadrant, i.e., the target quadrant) was made of transparent Plexiglas, being invisible to the swimming animal, and was immersed 1 cm under the surface of water. The maze was lighted with an intensity of 45 lx. […] The time taken to reach the hidden platform (escape latency) on days 1–6 was recorded for each mouse and analyzed. Each animal was released from a different starting point and was allowed to swim for 60 s. […] On the seventh day (a drug-off trial conducted 24 h after the last training trial), the platform was removed from the pool, and a probe trial was performed (without drug treatmentassessment of memory retention).

[34] = target: hBChE (Homo sapiens, UniProt P06276); assay: biochemical
Method: The inhibitory potencies of the compounds against the ChEs were determined using the method of Ellman. […] The final content of DMSO was always 1% [v/v]. […] The initial velocities in the presence (v i ) and absence (v 0) of the test compounds were calculated. The inhibitory potencies were expressed as the residual activities, according to RA = (v i – b)/(v 0 – b), where b is the blank value using phosphate buffer without ChEs. For IC50 determinations, at least seven different concentrations for each compound were used. The IC50 values were obtained by plotting the residual ChE activities against the applied inhibitor concentrations, with the experimental data fitted to a four-parameter logistic function (GraphPad Prism 10.0).

[35] = system: mice (locomotor activity); assay: Locomotor activity test; details: 10 mg/kg i.p.
From the text: The mice had unlimited access to food and water prior to the experiment. Specified conditions for the maintenance of mice were ensured throughout the experiment, including tree bedding (Transwior, Poland) and cage enrichment (tunnels, nesting material, wooden igloos, etc.). For behavioral tests, the mice were selected randomly; each group consisted of 7–10 mice. […] After in vivo tests, the animals were immediately euthanized, and their tissues were collected and stored for further ex vivo testing.
They were administered intraperitoneally (i.p.) 60 min before the acquisition trial of the PA, NOR, and MWM tasks.
The locomotor activity test was performed using activity cages (40 cm × 40 cm × 30 cm, supplied with IR beam emitters) (Activity Cage 7441, Ugo Basile, Italy) connected to a counter for the recording of light-beam interrupts. […] The animals’ movements (i.e., the number of light-beam crossings) were counted during the next 60 min of the test. Before the experiment, the mice were habituated to activity cages for 15 min.

[36] = Pharmacokinetic study in mice
Method: In this study, male CD-1 mice weighing 27–34 g housed in conditions of constant temperature with a 12:12 h light-dark cycle with free access to food and water were used. Both tested and reference compounds were suspended in 1% Tween in water for injection (Polpharma, Poland) and administered intraperitoneally (i.p.). The mice were sacrificed by decapitation under isoflurane anesthesia at different time points following compound administration. Brains were harvested at the same time points. Blood was allowed to clot at room temperature for 20 min, and serum was separated by centrifugation at 8 000g (Eppendorf MiniSpin centrifuge, Germany) for 10 min. All samples were stored at −80 °C until analysis.
The analytical workflow employed a Sciex QTRAP 4500 triple quadrupole mass spectrometer interfaced with an Exion LC AC HPLC system (Danaher Corporation, USA). Chromatographic separation was achieved on an XBridge C18 column (3 × 50 mm, 5 μm; Waters, USA), utilizing a mobile phase composed of acetonitrile and water both containing 0.1% formic acid. The column temperature was maintained at 40 °C, and a gradient elution protocol (Table S10) was implemented to ensure optimal analyte resolution and retention times. Mass spectrometric detection was conducted in unit resolution mode, with ion transitions specified in Table S11. […] Valsartan served as the internal standard and was monitored at m/z 436 → 207 (collision energy = 42 eV). Positive electrospray ionization (ESI+) was employed to enhance detection sensitivity. Ion path parameters (Table S11) were optimized via direct infusion of analyte solutions (7 μL/min) using a syringe pump. The optimized source conditions included an ion spray voltage of 5500 V, a source temperature of 450 °C, curtain gas pressure at 20 psi, and medium collision gas pressure. […] No significant matrix effects or stability concerns were observed during routine sample analysis. Data acquisition and processing were carried out using Analyst software version 1.7.
Serial dilutions were performed to generate working solutions ranging from 0.01 to 20 μg/mL, corresponding to final calibration concentrations of 0.001–2 μg/mL. For calibration curve construction, 5 μL of each working solution was spiked into 45 μL of the relevant biological matrix (serum or brain homogenate) and vortexed for 10 s. Sample preparation involved protein precipitation, in a 1:3 (v/v) ratio, using acetonitrile containing 0.1% formic acid and the internal standard. The mixtures were agitated for 10 min using an IKA Vibrax VXR shaker (Germany), followed by centrifugation at 8000 × g for 5 min (Eppendorf miniSpin, Germany). The resulting supernatants were transferred to chromatographic vials for analysis.
Brain tissues were homogenized in distilled water at a 1:4 (w/v) ratio using an ULTRA-TURRAX T10 basic homogenizer (IKA, Germany). Aliquots of brain homogenate or serum (50 μL) were subjected to protein precipitation in a 1:3 (v/v) ratio with acetonitrile containing 0.1% formic acid and the internal standard. The mixtures were agitated for 10 min using an IKA Vibrax VXR shaker (Germany), followed by centrifugation at 8000 × g for 5 min (Eppendorf miniSpin, Germany). The resulting supernatants were directly transferred to chromatographic vials for analysis. In cases where analyte concentrations in serum exceeded 20 μg/mL, samples were diluted with blank matrix prior to the deproteinization step. The autosampler was maintained at 15 °C, and a 1 μL aliquot was injected onto the analytical column.
Pharmacokinetic parameters were estimated using the noncompartmental analysis (NCA). The maximum concentration (C max) and the time to reach maximum concentration (t max) in serum and brain were obtained directly from the concentration versus time data.

[37] = male, CD-1, mouse, brain, ip, 10 mg/kg
[38] = male, CD-1, mouse, serum, ip, 10 mg/kg

Sequence of hBChE (P06276 29-602): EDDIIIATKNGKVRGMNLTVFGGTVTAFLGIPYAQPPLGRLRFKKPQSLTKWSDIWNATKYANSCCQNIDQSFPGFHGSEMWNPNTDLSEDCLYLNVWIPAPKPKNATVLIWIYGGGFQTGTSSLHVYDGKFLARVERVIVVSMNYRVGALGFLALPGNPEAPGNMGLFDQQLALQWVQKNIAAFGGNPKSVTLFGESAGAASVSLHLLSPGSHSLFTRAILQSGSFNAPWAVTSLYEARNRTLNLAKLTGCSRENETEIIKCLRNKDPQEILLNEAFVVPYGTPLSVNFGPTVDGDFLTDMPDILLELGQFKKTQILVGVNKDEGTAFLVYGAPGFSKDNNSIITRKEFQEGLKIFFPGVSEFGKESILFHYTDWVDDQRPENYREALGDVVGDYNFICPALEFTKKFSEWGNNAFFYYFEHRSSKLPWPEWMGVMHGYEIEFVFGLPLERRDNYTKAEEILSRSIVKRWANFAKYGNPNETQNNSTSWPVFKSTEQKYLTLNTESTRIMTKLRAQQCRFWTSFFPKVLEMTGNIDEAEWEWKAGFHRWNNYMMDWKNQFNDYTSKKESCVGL

SMILES: CC(C)Cn1ncc2cc(Cc3ccc(F)cc3F)c(C(=O)NCCN(C)C)cc21 [Compound 94, 5-(2,4-Difluorobenzyl)-N-(2-(dimethylamino)ethyl)-1-isobutyl-1H-indazole-6-carboxamide]
- IC50 [1]: 377 nM and 156 ng/mL
- RA @ 1000nM [2]: 93%
- RA @ 10000nM [2]: 90%
- RA @ 1000nM [3]: 100%
- RA @ 10000nM [3]: 100%
- RA @ 1000nM [4]: 84%
- RA @ 10000nM [4]: 68%
- RA @ 1000nM [5]: 97%
- RA @ 10000nM [5]: 89%
- RA @ 1000nM [6]: 86%
- RA @ 10000nM [6]: 95%
- RA @ 1000nM [7]: 100%
- RA @ 10000nM [7]: 100%
- RA @ 1000nM [8]: 100%
- RA @ 10000nM [8]: 100%
- RA @ 1000nM [9]: 82%
- RA @ 10000nM [9]: 97%
- RA @ 1000nM [10]: 79%
- RA @ 10000nM [10]: 86%
- RA @ 1000nM [11]: 74%
- RA @ 10000nM [11]: 81%
- RA @ 1000nM [12]: 91%
- RA @ 10000nM [12]: 97%
- RA @ 1000nM [13]: 82%
- RA @ 10000nM [13]: 87%
- RA @ 1000nM [14]: 100%
- RA @ 10000nM [14]: 100%
- RA @ 1000nM [15]: 100%
- RA @ 10000nM [15]: 84%
- RA @ 1000nM [16]: 76%
- RA @ 10000nM [16]: 80%
- RA @ 1000nM [17]: 96%
- RA @ 10000nM [17]: 76%
- RA @ 1000nM [18]: 100%
- RA @ 10000nM [18]: 97%
- RA @ 1000nM [19]: 88%
- RA @ 10000nM [19]: 74%
- RA @ 1000nM [20]: 86%
- RA @ 10000nM [20]: 85%
- RA @ 1000nM [21]: 100%
- RA @ 10000nM [21]: 96%
- RA @ 1000nM [22]: 100%
- RA @ 10000nM [22]: 100%
- RA @ 1000nM [23]: 80%
- RA @ 10000nM [23]: 80%
- RA @ 1000nM [24]: 85%
- RA @ 10000nM [24]: 92%
- RA @ 1000nM [25]: 86%
- RA @ 10000nM [25]: 65%
- RA @ 1000nM [26]: 100%
- RA @ 10000nM [26]: 93%
- RA @ 1000nM [27]: 100%
- RA @ 10000nM [27]: 100%
- RA @ 1000nM [28]: 78%
- RA @ 10000nM [28]: 79%
- RA @ 1000nM [29]: 100%
- RA @ 10000nM [29]: 100%
- RA @ 1000nM [30]: 100%
- RA @ 10000nM [30]: 79%
- production of IL-12 [31]: increased, albeit at a low level
- production of pro-inflammatory cytokines IL-8, IL-1β, IL-6, IL-10, and TNF-α ([31]; 1, 2.5, and 5 μM, 18 h): significantly inhibited
- efficacy in NOR task ([32]; 5 mg/kg i.p., scopolamine model): statistically ineffective
- preference for the novel object (NOR task) ([32]; 10 mg/kg i.p., vs mice treated with scopolamine alone): statistically significant preference for the novel object
- escape latency, acquisition phase (days 1–6) of MWM [33]: statistically significant decrease in escape latency from day 2
- Pe ± SEM (BBB-PAMPA, pH 7.4, n = 2 novel compounds, n = 3 reference drugs): 10.4 ± 0.01 ×10–6 cm/s
- CNS (+/–) (predicted BBB permeation from Pe): CNS+ (CNS+ indicates high predicted BBB permeation [Pe (×10–6 cm/s) > 4.0])
- IC50 ([34]; hBChE IC50 ± SEM, two independent experiments, each in triplicate): 652 ± 112 nM
- IC50 ([34]; in vitro hBChE IC50, IC50 expressed as concentration in ng/mL): 651 nM
- motor adverse effects (locomotor activity test) [35]: no motor adverse effects
- elimination half-life in brain compared to serum ([36]; 10 mg/kg i.p., mice): over 2 fold
- AUC0‑∞ ([36]; brain, 10 mg/kg i.p., mice): 50863.30 ng·min/mL(g)
- AUC0–t ([36]; brain, 10 mg/kg i.p., mice): 48459.19 ng·min/mL(g)
- t0.5λz ([36]; brain, 10 mg/kg i.p., mice): 210.94 min
- Cmax [36, 37]: 658 ng/g
- MRT [36, 37]: 102 min
- Tmax [36, 37]: 15 min
- k el [36, 37]: 5.5e-05 s⁻¹
- Kp ([36]; male, CD-1, mouse, brain/serum, ip, 10 mg/kg): 1.58
- AUC [36, 38]: 536 ng·h/mL
- AUC(0-t) [36, 38]: 532 ng·h/mL
- CL/F [36, 38]: 310 mL/min/kg
- Cmax [36, 38]: 946 ng/mL
- MRT [36, 38]: 53.8 min
- Tmax [36, 38]: 5 min
- Vd/F [36, 38]: 46 L/kg
- k el [36, 38]: 0.000112 s⁻¹
- AUC0–t ratio compound 94 to compound 95 ([36]; serum, 10 mg/kg i.p., mice): 0.53
- t0.5λz ([36]; serum, 10 mg/kg i.p., mice): 102.50 min
